Measurements: patent publication US20180334436A1 (VIIV HEALTHCARE UK LIMITED, priority 2015, published 2018)

What follows are molecules tested on HIV (assay: MT4 assay (anti-HIV activity)). Details: Human immunodeficiency virus 1, 96 h, antiviral HIV activity in HTLV-1 transformed cell line MT-4; luciferase read 96 hours later; 10 point dose response.
Format: cell-based
Outline: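 MT-4 cells infected with HIV, with inhibition readout by CellTiter-Glo luminescence at 96 h relative to no-compound control. Cytotoxicity measured in parallel under the same conditions. IC50 from a 10-point, 3-4-fold dilution series spanning >1000-fold, fitted with a four-parameter logistic equation.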
`Cc1c2c(c(C)c([C@H](OC(C)(C)C)C(=O)O)c1-c1ccc(Cl)cc1)CCN(S(=O)(=O)C1CCCCC1)C2` [Example 86, (S)-2-(tert-butoxy)-2-(7-(4-chlorophenyl)-2-(cyclohexylsulfonyl)-5,8-dimethyl-1,2,3,4-tetrahydroisoquinolin-6-yl)acetic Acid] showed an IC50 of 38 nM.
In the case of `Cc1c(-c2c(C)c3c(c(C)c2[C@H](OC(C)(C)C)C(=O)O)CCN(C(=O)c2ccccc2)C3)cc(F)c2c1CCCO2` [Example 91, (S)-2-((R)-2-Benzoyl-7-(8-fluoro-5-methylchroman-6-yl)-5,8-dimethyl-1,2,3,4-tetrahydroisoquinolin-6-yl)-2-(tert-butoxy)acetic Acid], the IC50 is reported as 48 nM.
In the case of `Cc1ccc(-c2c(C)c3c(c(C)c2[C@H](OC(C)(C)C)C(=O)O)CCN(C2CCc4ccccc4C2)C3)cc1` (stereo partly drawn) [Example 77, (2S)-2-(tert-butoxy)-2-(5,8-dimethyl-2-(1,2,3,4-tetrahydronaphthalen-2-yl)-7-(p-tolyl)-1,2,3,4-tetrahydroisoquinolin-6-yl)acetic Acid], the IC50 is reported as 40 nM.
With `Cc1c(-c2c(C)c3c(c(C)c2[C@H](OC(C)(C)C)C(=O)O)CCN(S(=O)(=O)C2CCCCC2)C3)cc(F)c2c1CCCO2` [Example 80, (S)-2-(tert-Butoxy)-2-((R)-2-(cyclohexylsulfonyl)-7-(8-fluoro-5-methylchroman-6-yl)-5,8-dimethyl-1,2,3,4-tetrahydroisoquinolin-6-yl)acetic Acid] the IC50 was 13 nM.
For `Cc1ccc(-c2c(C)c3c(c(C)c2[C@H](OC(C)(C)C)C(=O)O)CN(C(=O)CC(C)(C)C)CC3)cc1` [Example 20, (S)-2-(tert-Butoxy)-2-(2-(3,3-dimethylbutanoyl)-5,8-dimethyl-6-(p-tolyl)-1,2,3,4-tetrahydroisoquinolin-7-yl)acetic Acid], the IC50 was 119 nM.
`Cc1ccc(-c2c(C)c3c(c(C)c2[C@H](OC(C)(C)C)C(=O)O)CN(C(=O)CC2CCCCC2)CC3)cc1` [Example 37, (S)-2-(tert-butoxy)-2-(2-(2-cyclohexylacetyl)-5,8-dimethyl-6-(p-tolyl)-1,2,3,4-tetrahydroisoquinolin-7-yl)acetic Acid] was tested, and the IC50 was 118 nM.
For `Cc1ccc(-c2c(C)c3c(c(C)c2[C@H](OC(C)(C)C)C(=O)O)CCN(C2CCC[C@@H](C)C2)C3)cc1` (single isomer, unassigned) [Example 71], the IC50 was 14 nM.
`Cc1c(-c2c(C)c3c(c(C)c2[C@H](OC(C)(C)C)C(=O)O)CCN(S(=O)(=O)C2CCCCC2)C3)cc(Cl)c2c1CCCO2` (atropisomer, axis not shown; (M)) [Example 88, (S)(M)-2-(tert-butoxy)-2-(7-(8-chloro-5-methylchroman-6-yl)-2-(cyclohexylsulfonyl)-5,8-dimethyl-1,2,3,4-tetrahydroisoquinolin-6-yl)acetic Acid] showed an IC50 of 36 nM.
`Cc1ccc(-c2c(C)c3c(c(C)c2C(OC(C)(C)C)C(=O)O)CN(C(=O)C2CCCCC2)CC3)cc1` (stereo not drawn) [Example 4, 2-(tert-Butoxy)-2-(2-(cyclohexanecarbonyl)-5,8-dimethyl-6-(p-tolyl)-1,2,3,4-tetrahydroisoquinolin-7-yl)acetic Acid] showed an IC50 of 323 nM.
`Cc1c(-c2c(C)c3c(c(C)c2[C@H](OC(C)(C)C)C(=O)O)CC(=O)N(C2CCCC(F)(F)C2)C3)cc(F)c2c1CCCO2` (stereo partly drawn) [Example 117, (2S)-2-(tert-butoxy)-2-((7R)-2-(3,3-difluorocyclohexyl)-7-(8-fluoro-5-methylchroman-6-yl)-5,8-dimethyl-3-oxo-1,2,3,4-tetrahydroisoquinolin-6-yl)acetic Acid] showed an IC50 of 2 nM.
`Cc1c(-c2c(C)c3c(c(C)c2[C@H](OC(C)(C)C)C(=O)O)CC(=O)N(C2CCN(C)CC2)C3)cc(F)c2c1CCCO2` (atropisomer, axis not shown) [Example 112, (S)-2-(tert-butoxy)-2-((R)-7-(8-fluoro-5-methylchroman-6-yl)-5,8-dimethyl-2-(1-methylpiperidin-4-yl)-3-oxo-1,2,3,4-tetrahydroisoquinolin-6-yl)acetic Acid] gave an IC50 of 1040 nM.
For `Cc1ccc(-c2c(C)c3c(c(C)c2[C@H](OC(C)(C)C)C(=O)O)CCN(C2CCCC(C)(C)C2)C3)cc1` (stereo partly drawn) [Example 52, (2S)-2-(tert-butoxy)-2-(2-(3,3-dimethylcyclohexyl)-5,8-dimethyl-7-(p-tolyl)-1,2,3,4-tetrahydroisoquinolin-6-yl)acetic Acid], the IC50 was 10 nM.
`Cc1c(-c2c(C)c3c(c(C)c2[C@H](OC(C)(C)C)C(=O)O)CC(=O)N(C2CCCCC2(C)C)C3)cc(F)c2c1CCCO2` (stereo partly drawn) [Example 116, (2S)-2-(tert-butoxy)-2-((7R)-2-(2,2-dimethylcyclohexyl)-7-(8-fluoro-5-methylchroman-6-yl)-5,8-dimethyl-3-oxo-1,2,3,4-tetrahydroisoquinolin-6-yl)acetic Acid] gave an IC50 of 3 nM.
In the case of `Cc1ccc(-c2c(C)c3c(c(C)c2[C@H](OC(C)(C)C)C(=O)O)CN(C(=O)N2CCCC2)CC3)cc1` [Example 14, (S)-2-(tert-Butoxy)-2-(5,8-dimethyl-2-(pyrrolidine-1-carbonyl)-6-(p-tolyl)-1,2,3,4-tetrahydroisoquinolin-7-yl)acetic Acid], the IC50 is reported as 1110 nM.
With `Cc1c(-c2c(C)c3c(c(C)c2[C@H](OC(C)(C)C)C(=O)O)CCN(C2CCCCC2)C3)cc(F)c2c1CCCO2` (atropisomer, axis not shown; (M)) [Example 67, (2S)(M)-2-(tert-butoxy)-2-(2-cyclohexyl-7-(8-fluoro-5-methylchroman-6-yl)-5,8-dimethyl-1,2,3,4-tetrahydroisoquinolin-6-yl)acetic Acid] the IC50 was 5 nM.
Molecule `COc1c(F)cccc1C(=O)N1CCc2c(C)c([C@H](OC(C)(C)C)C(=O)O)c(-c3ccc(C)cc3)c(C)c2C1` [Example 26, (S)-2-(tert-Butoxy)-2-(2-(3-fluoro-2-methoxybenzoyl)-5,8-dimethyl-7-(p-tolyl)-1,2,3,4-tetrahydroisoquinolin-6-yl)acetic Acid] has an IC50 of 61 nM.
Work on `Cc1ccc(-c2c(C)c3c(c(C)c2[C@H](OC(C)(C)C)C(=O)O)CN(S(=O)(=O)N2CCCCC2)CC3)cc1` [Example 16, (S)-2-(tert-Butoxy)-2-(5,8-dimethyl-2-(piperidin-1-ylsulfonyl)-6-(p-tolyl)-1,2,3,4-tetrahydroisoquinolin-7-yl)acetic Acid] yielded an IC50 of 34 nM.
With `Cc1ccc(-c2c(C)c3c(c(C)c2C(OC(C)(C)C)C(=O)O)CC(=O)N(Cc2ccccc2)C3)cc1` (stereo not drawn) [Example 98, 2-(2-Benzyl-5,8-dimethyl-3-oxo-7-(p-tolyl)-1,2,3,4-tetrahydroisoquinolin-6-yl)-2-(tert-butoxy)acetic Acid] the IC50 was 14 nM.
